Laboratory results published in ChEMBL document CHEMBL5346950, “Development of Biaryl-Containing Aldo-Keto Reductase 1C3 (AKR1C3) Inhibitors for Reversing AKR1C3-Mediated Drug Resistance in Cancer Treatment” (J Med Chem, 2023).

Experiments:
[1] = target: T1, Aldo-keto reductase family 1 member C2 (Homo sapiens, UniProt P52895); assay: Inhibition of human recombinant AKR1C2 transfected in Escherichia coli BL21 (DE3) pLysS competent cells using S-tetralol as substrate assessed as inhibition of NADP+ dependent substrate oxidation incubated for 10 mins by fluorescence microplate reader assay
T1 sequence (P52895 whole entry): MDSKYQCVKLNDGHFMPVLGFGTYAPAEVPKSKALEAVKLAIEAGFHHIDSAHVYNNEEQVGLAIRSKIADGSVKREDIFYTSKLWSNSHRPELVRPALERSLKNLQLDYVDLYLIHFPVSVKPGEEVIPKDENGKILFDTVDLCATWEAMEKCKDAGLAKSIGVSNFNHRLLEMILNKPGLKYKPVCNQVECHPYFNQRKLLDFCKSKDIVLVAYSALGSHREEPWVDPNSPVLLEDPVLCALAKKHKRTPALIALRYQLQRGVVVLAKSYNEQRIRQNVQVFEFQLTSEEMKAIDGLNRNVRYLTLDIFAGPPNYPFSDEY

MCF7 [2] = assay: Antiproliferative activity against human MCF7 cells overexpressing AKR1C3 assessed as cell survival rate at 50 uM incubated for 72 hrs by MTT assay relative to control; type: functional
MCF7 [3] = assay: Synergistic antiproliferative activity against human MCF7 cells overexpressing AKR1C3 assessed as combination index at 50 uM incubated for 72 hrs in presence of doxorubicin at 50 nM by Chou-Talalay method; type: functional
MCF7 [4] = assay: Synergistic antiproliferative activity against human MCF7 cells overexpressing AKR1C3 assessed as combination index at 25 uM incubated for 72 hrs in presence of doxorubicin at 200 nM by Chou-Talalay method; type: functional
MCF7 [5] = assay: Synergistic antiproliferative activity against human MCF7 cells overexpressing AKR1C3 assessed as dose reduction index for doxorubicin at 25 uM incubated for 72 hrs in presence of doxorubicin at 200 nM by Chou-Talalay method; type: functional
MCF7 [6] = assay: Synergistic antitumor activity against human MCF7 cells expressing AKR1C3 xenografted in BALB/c nude mouse assessed as tumor growth inhibition at 10 mg/kg, po administered every 2 days for 3 weeks in presence of doxorubicin and measured every 3 days by caliper analysis relative to control; type: functional
MCF7 [7] = assay: Synergistic antiproliferative activity against human MCF7 cells overexpressing AKR1C3 assessed as dose reduction index for doxorubicin at 25 uM incubated for 72 hrs in presence of doxorubicin at 50 nM by Chou-Talalay method; type: functional
[8] = Elimination phase half life in Sprague-Dawley rat at 10 mg/kg, IG measured for 5760 mins by LC-MS/MS analysis; type: ADME, organism-based; settings: in vivo, po, read-out: beta t1/2 (converted)
MCF7 [9] = assay: Synergistic antiproliferative activity against human MCF7 cells overexpressing AKR1C3 assessed as combination index at 25 uM incubated for 72 hrs in presence of doxorubicin at 20 nM by Chou-Talalay method; type: functional
[10] = MRT (0 to infinity) in Sprague-Dawley rat at 2 mg/kg, iv measured for 5760 mins by LC-MS/MS analysis; type: ADME, organism-based; settings: in vivo
MCF7 [11] = assay: Synergistic antiproliferative activity against human MCF7 cells overexpressing AKR1C3 assessed as dose reduction index for doxorubicin at 25 uM incubated for 72 hrs in presence of doxorubicin at 20 nM by Chou-Talalay method; type: functional
[12] = target: T2, Aldo-keto reductase family 1 member C4 (Homo sapiens, UniProt P17516); assay: Inhibition of human recombinant AKR1C4 transfected in Escherichia coli BL21 (DE3) pLysS competent cells using S-tetralol as substrate assessed as inhibition of NADP+ dependent substrate oxidation incubated for 10 mins by fluorescence microplate reader assay
T2 sequence (P17516 whole entry): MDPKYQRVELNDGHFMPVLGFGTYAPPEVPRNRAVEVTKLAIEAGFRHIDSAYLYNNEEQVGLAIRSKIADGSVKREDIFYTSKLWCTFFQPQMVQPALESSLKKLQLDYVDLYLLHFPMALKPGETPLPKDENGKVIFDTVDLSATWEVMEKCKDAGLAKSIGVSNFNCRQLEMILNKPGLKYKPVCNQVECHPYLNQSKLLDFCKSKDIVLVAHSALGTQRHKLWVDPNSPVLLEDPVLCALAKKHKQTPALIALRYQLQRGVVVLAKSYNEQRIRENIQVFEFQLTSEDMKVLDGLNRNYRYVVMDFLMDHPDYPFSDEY

[13] = Toxicity in BALB/c nude mouse xenografted with human MCF7 cells expressing AKR1C3 assessed as histopathological changes in heart at 10 mg/kg, po administered every 2 days for 3 weeks by H and E staining based analysis; type: organism-based; settings: in vivo, 504 h
MCF7 [14] = assay: Antiproliferative activity against human MCF7 cells transfected with AKR1C3 assessed as reduction in cell viability at 100 uM incubated for 72 hrs by MTT assay relative to control; type: functional
MCF7 [15] = assay: Synergistic antiproliferative activity against human MCF7 cells overexpressing AKR1C3 assessed as dose reduction index for doxorubicin at 10 uM incubated for 72 hrs in presence of doxorubicin at 100 nM by Chou-Talalay method; type: functional
[16] = MRT (0 to infinity) in Sprague-Dawley rat at 10 mg/kg, IG measured for 5760 mins by LC-MS/MS analysis; type: ADME, organism-based; settings: in vivo, po
[17] = target: Aldo-keto reductase family 1 member B1 (Homo sapiens, UniProt P15121); assay: Inhibition of AKR1B1 (unknown origin) transfected in Escherichia coli BL21 (DE3) pLysS competent cells using pyridine-3-aldehyde as substrate assessed as inhibition of NADP+ dependent substrate oxidation incubated for 10 mins
[18] = Toxicity in BALB/c nude mouse xenografted with human MCF7 cells expressing AKR1C3 assessed as histopathological changes in liver at 10 mg/kg, po administered every 2 days for 3 weeks in presence of doxorubicin by H and E staining based analysis; type: organism-based; settings: in vivo, 504 h
[19] = Toxicity in BALB/c nude mouse xenografted with human MCF7 cells expressing AKR1C3 assessed as histopathological changes in spleen at 10 mg/kg, po administered every 2 days for 3 weeks by H and E staining based analysis; type: organism-based; settings: in vivo, 504 h
[20] = Toxicity in BALB/c nude mouse xenografted with human MCF7 cells expressing AKR1C3 assessed as histopathological changes in liver at 10 mg/kg, po administered every 2 days for 3 weeks by H and E staining based analysis; type: organism-based; settings: in vivo, 504 h
MCF7 [21] = assay: Restoration of doxorubicin sensitivity in human MCF7 cells assessed as inhibition of colony formation at 25 uM incubated for 12 days in presence of doxorubicin at 50 nM by crystal violet staining based assay relative to control; type: functional; settings: time 12 day
[22] = Toxicity in BALB/c nude mouse xenografted with human MCF7 cells expressing AKR1C3 assessed as reduction in body weight at 10 mg/kg, po administered every 2 days for 3 weeks in presence of doxorubicin and measured every 3 days; type: organism-based; settings: in vivo, 504 h
[23] = AUC (0 to infinity) in Sprague-Dawley rat at 10 mg/kg, IG measured for 5760 mins by LC-MS/MS analysis; type: ADME, organism-based; design: dose 10 mg/kg, time 5760 min, route ig; settings: in vivo, po, 96 h
[24] = Clearance in Sprague-Dawley rat at 2 mg/kg, iv measured for 5760 mins by LC-MS/MS analysis; type: ADME, organism-based; settings: in vivo
[25] = Metabolic stability in liver microsomes (unknown origin) assessed as half life; type: ADME, Microsome

O=C(O)C1(c2ccc(-c3cc(Cl)cc(Cl)c3)c(F)c2)CC1
IC50 [1]: 1.53 µM | Survival (MCF7 [2]): >80% | CI (MCF7 [3]): 0.239 | CI (MCF7 [4]): 0.274 | Activity_index (MCF7 [5]): 5.636 | TGI (MCF7 [6]): 87.46% | Activity_index (MCF7 [7]): 22.177 | half-life [8]: 21.3 h | CI (MCF7 [9]): 0.276 | MRT inf [10]: 51.1 h | Activity_index (MCF7 [11]): 11.001 | IC50 [12]: > 10 µM | Activity [13]: Non-Toxic | Activity (MCF7 [14]): ~37% | Activity_index (MCF7 [15]): 4.423 | MRT inf [16]: 36.6 h | IC50 [17]: > 10 µM | Activity [18]: Non-Toxic | Activity [19]: Non-Toxic | Activity [20]: Non-Toxic | inhibition (INH) (MCF7 [21]): 100% | Activity [22]: Non-Toxic | AUC [23]: 1592.21 ng·h/mL | clearance [24]: 52.3 mL/min/kg | half-life [25]: 6.94 h
